Measured values from the NIST ThermoML archive (doi:10.1016/j.fluid.2012.10.015).
Numbers after ± are expanded uncertainties.

Experiments:
[1] = Liquid; for mass density: 101.33 kPa, Vibrating tube method; for vapor or sublimation pressure: Closed cell (Static) method
[2] = refractive index (Na D-line) (dimensionless); conditions: 298.15 K; 101.33 kPa; Liquid; Standard Abbe refractometry

Compound | mass density ([1]; 298.15 K) [kg/m3] | vapor or sublimation pressure ([1]; 298.15 K) [kPa] | vapor or sublimation pressure ([1]; 308.15 K) [kPa] | vapor or sublimation pressure ([1]; 318.15 K) [kPa] | refractive index [2]
CCCCCCl [1-chloropentane] | 877.089 ± 2.2 | 4.24 ± 0.07 | 7.09 ± 0.08 | 10.91 ± 0.09 | 1.41015 ± 0.00068
CCCCCl [1-chlorobutane] | 881.172 ± 2.2 | 13.72 ± 0.15 | 20.66 ± 0.19 | 31.46 ± 0.23 | 1.39953 ± 0.00068
CC[N+](=O)[O-] [nitroethane] | 1044.21 ± 2.3 | 2.95 ± 0.05 | 4.69 ± 0.06 | 7.24 ± 0.07 | 1.38951 ± 0.00071
C[N+](=O)[O-] [nitromethane] | 1130.87 ± 2.3 | 4.83 ± 0.07 | 7.5 ± 0.09 | 12.57 ± 0.11 | 1.37956 ± 0.00072
